Measurements from patent publication US12479840B2, “HMG-CoA reductase degradation inducing compound” (Uppthera, priority 2020, dated 2025).

Each compound was assayed against T1, HMG-CoA reductase (Homo sapiens, UniProt P04035) (assay: HMG-CoA reductase (HMGCR) degradation in HepG2 cells by western blotting). Conditions: treated for 18 hours, ratio of HMG-CoA reductase to GAPDH, read-out: DC50.
T1 construct: endogenous in cells; host or cells: HepG2 (Korea Cell Line Bank)
T1 sequence (P04035 1-888): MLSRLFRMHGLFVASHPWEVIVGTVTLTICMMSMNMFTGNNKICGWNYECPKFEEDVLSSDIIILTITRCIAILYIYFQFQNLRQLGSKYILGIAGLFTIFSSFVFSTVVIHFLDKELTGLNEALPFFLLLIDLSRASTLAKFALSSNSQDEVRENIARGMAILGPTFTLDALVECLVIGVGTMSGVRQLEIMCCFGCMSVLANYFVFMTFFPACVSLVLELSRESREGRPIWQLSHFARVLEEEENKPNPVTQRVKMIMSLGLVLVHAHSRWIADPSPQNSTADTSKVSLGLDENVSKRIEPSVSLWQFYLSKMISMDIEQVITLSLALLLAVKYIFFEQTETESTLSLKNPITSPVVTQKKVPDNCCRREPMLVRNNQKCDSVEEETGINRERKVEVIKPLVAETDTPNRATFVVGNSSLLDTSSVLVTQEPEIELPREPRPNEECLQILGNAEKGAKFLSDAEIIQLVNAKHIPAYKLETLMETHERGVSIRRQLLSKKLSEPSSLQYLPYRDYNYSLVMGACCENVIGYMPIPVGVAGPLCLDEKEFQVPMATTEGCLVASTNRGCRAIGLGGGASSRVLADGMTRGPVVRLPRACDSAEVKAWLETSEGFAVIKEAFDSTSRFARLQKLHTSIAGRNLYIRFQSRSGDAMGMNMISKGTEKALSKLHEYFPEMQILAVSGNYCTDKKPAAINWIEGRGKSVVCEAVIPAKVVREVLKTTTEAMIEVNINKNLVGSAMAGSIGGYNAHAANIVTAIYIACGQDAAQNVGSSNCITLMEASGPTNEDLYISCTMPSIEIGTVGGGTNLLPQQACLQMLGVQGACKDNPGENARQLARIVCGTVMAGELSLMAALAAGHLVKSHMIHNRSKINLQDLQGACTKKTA
Assay type: cell-based
Experimental: HepG2, a human liver cancer cell line, was purchased from the Korea Cell Line Bank (KCLB), Seoul, Korea. The passage in cell culture was maintained at P105 to P110.
The compounds of the present invention were completely dissolved in DMSO and used in the experiment. 2×10^5 cells were seeded for each well of a 12-well plate (SPL), and the cells were cultured in the culture medium in a total volume of 2 ml. Each of the compounds of the present invention and comparative compounds was diluted three folds from the highest concentration of 3 μM to the lowest concentration in 10 points and treated for 18 hours.
Each of the compounds the present invention and comparative compounds was diluted three folds from the highest concentration of 3 μM to the lowest concentration of […] in 10 points and was treated for 18 hours.
For SDS-PAGE and Western blotting, 1×RIPA lysis buffer (Rockland, Cat. No. MB-030-0050; Lot no. 39751), 100× Protease Inhibitor Cocktail (Quartett, Cat. No. PPI1015; Lot no. PCO50038424), Pierce™ BCA protein assay kit (ThermoScientific, Cat. No. 23225; Lot no. UC276876), albumin standard (ThermoScientific, Cat. No. 23209; Lot no. UB269561), 4-15% Mini-PROTEAN TGX stain-free gel (Bio-rad, Cat. No. 4568085; Lot no. L007041B), 10× Tris/Glycine/SDS buffer (Bio-rad, Cat. No. 1610732; Lot no. 10000044375B); 10×TBS (Bio-rad, Cat. No. 1706435; Lot no. 1000045140B), 10% Tween 20 (Cat. No. 1610781; Lot no. L004152B), Color protein standard broad range (NEB, Cat. No. P7719S; Lot no. 10040349), 4× Laemmli sample buffer (Bio-rad, Cat. No. 1610747; Lot no. L004133B), β-mercaptoethanol (Sigma-Aldrich, Cat. No. M3148; Lot no. 60-24-2), SuperBlock™ T20 (TBS) blocking buffer (ThermoScientific, Cat. No. 37536; Lot no. UC282578), 1M sodium azide solution (Sigma-Aldrich, Cat. No. 08591-1 mL-F; Lot no. BCBV4989), α-Rabbit pAb to Ms IgG (abcam, Cat. No. ab97046; Lot no. GR3252115-1), α-Goat pAb to Rb IgG (CST, Cat. No. 7074S; Lot no. 28), α-GAPDH (abcam, Cat. No. ab8245), α-HMGCR (GeneTex, Cat. No. GTX54088; Lot no. 821903509), ECL™ Prime western blotting reagents (GE Healthcare, Cat. No. RPN2232; Lot no. 17001655), Ponceau S solution (Sigma-Aldrich, Cat. No. P7170; Lot no. SLBV4112), Difco™ Skim milk (BD, Cat. No. 232100; Lot no. 8346795), and iBlot® 2 NC Regular stacks (Invitrogen, Cat. No. IB23001; Lot no. 2NR110619-02), were used.
For cell harvesting, the cells were first separated from the plate using trypsin and then washed with the medium and PBS. Specifically, the medium was suctioned off and washed with 1 mL of PBS, and PBS was suctioned off. The cells were treated with 0.5 mL TrypLE™ Express at 37° C. for 7 minutes to separate the cells, and then 0.5 mL of complete medium was added to collect 1 mL of cell culture solution. Then, 1 mL of the cell collection solution was centrifuged at 8,000 rpm for 120 seconds, and the supernatant was removed. After washing with 0.2 mL of PBS, the PBS was removed.
For cell lysis, a lysis buffer was added and cell debris was removed to obtain a cell lysate. Specifically, the cells were treated with 70 μL of 1×RIPA buffer containing a protease inhibitor and incubated for 30 minutes on ice. Then, the cells were centrifuged at 4° C. and 15,000 rpm for 10 minutes to obtain a cell lysate.
Then, a standard curve was obtained using the BCA assay, and the protein mass in the lysate was quantified by substituting the curve. The mixture was incubated at 37° C. for 30 minutes using 20 μL of standard or sample solution, and 200 μL of BCA or Bradford solution, and measured at 562 nm absorbance. Samples were prepared by adding 4× sample buffer so that the quantity of protein added to each well was 15 μg.
Sodium dodecyl sulfate polyacrylamide gel electrophoresis (SDS-PAGE) was performed by setting a running time of 100 minutes at 120 V on a 4-15% Mini-PROTEAN TGX stain-free gel (15 well). Transferring was performed on iBlot® 2 NC Mini stacks at P0 mode of the dry blotting system. […]
For `C[C@H]1C=C2C=C[C@H](C)[C@H](CC[C@@H]3C[C@@H](O)CC(=O)O3)[C@H]2[C@@H](OC(=O)C(C)(C)CCC(=O)NCCOCCOCCOCCNc2ccccc2)C1` [Compound 1, (1S,3R,7S,8S,8aR)-8-(2-((2R,4R)-4-hydroxy-6-oxotetrahydro-2H-pyran-2-yl)ethyl)-3,7-dimethyl-1,2,3,7,8,8a-hexahydronaphthalen-1-yl 16,16-dimethyl-13-oxo-1-(phenylamino)-3,6,9-trioxa-12-azaheptadecan-17-oate], the DC50 was > 500 nM. `C[C@H]1C=C2C=C[C@H](C)[C@H](CC[C@@H]3C[C@@H](O)CC(=O)O3)[C@H]2[C@@H](OC(=O)C(C)(C)CCC(=O)NCCOCCOCCNc2cccc3c2C(=O)N(C2CCC(=O)NC2=O)C3=O)C1` (stereo partly drawn) [Compound 2, (1S,3R,7S,8S,8aR)-8-(2-((2R,4R)-4-hydroxy-6-oxotetrahydro-2H-pyran-2-yl)ethyl)-3,7-dimethyl-1,2,3,7,8,8a-hexahydronaphthalen-1-yl 5-((2-(2-(2-((2-(2,6-dioxopiperidin-3-yl)-1,3-dioxoisoindolin-4-yl)amino)ethoxy)ethoxy)ethyl)amino)-2,2-dimethyl-5-oxopentanoate] was tested, and the DC50 was < 50 nM. In the case of `C[C@H]1C=C2C=C[C@H](C)[C@H](CC[C@@H]3C[C@@H](O)CC(=O)O3)[C@H]2[C@@H](OC(=O)C(C)(C)CCC(=O)NCCOCCOCCOCCNc2cccc3c2C(=O)N(C2CCC(=O)NC2=O)C3=O)C1` (stereo partly drawn) [Compound 3, (1S,3R,7S,8S,8aR)-8-(2-((2R,4R)-4-hydroxy-6-oxotetrahydro-2H-pyran-2-yl)ethyl)-3,7-dimethyl-1,2,3,7,8,8a-hexahydronaphthalen-1-yl 1-((2-(2,6-dioxopiperidin-3-yl)-1,3-dioxoisoindolin-4-yl)amino)-16,16-dimethyl-13-oxo-3,6,9-trioxa-12-azaheptadecan-17-oate], the DC50 is reported as < 50 nM. In the case of `C[C@H]1C=C2C=C[C@H](C)[C@H](CC[C@@H]3C[C@@H](O)CC(=O)O3)[C@H]2[C@@H](OC(=O)C(C)(C)CCC(=O)NCCOCCOCCOCCOCCNc2cccc3c2C(=O)N(C2CCC(=O)NC2=O)C3=O)C1` (stereo partly drawn) [Compound 4, (1S,3R,7S,8S,8aR)-8-(2-((2R,4R)-4-hydroxy-6-oxotetrahydro-2H-pyran-2-yl)ethyl)-3,7-dimethyl-1,2,3,7,8,8a-hexahydronaphthalen-1-yl 1-((2-(2,6-dioxopiperidin-3-yl)-1,3-dioxoisoindolin-4-yl)amino)-19,19-dimethyl-16-oxo-3,6,9,12-tetraoxa-15-azaicosan-20-oate], the DC50 is reported as < 50 nM. For `C[C@H]1C=C2C=C[C@H](C)[C@H](CC[C@@H]3C[C@@H](O)CC(=O)O3)[C@H]2[C@@H](OC(=O)C(C)(C)CCC(=O)NCCOCCOCCOCCOCCOCCNc2cccc3c2C(=O)N(C2CCC(=O)NC2=O)C3=O)C1` (stereo partly drawn) [Compound 5, (1S,3R,7S,8S,8aR)-8-(2-((2R,4R)-4-hydroxy-6-oxotetrahydro-2H-pyran-2-yl)ethyl)-3,7-dimethyl-1,2,3,7,8,8a-hexahydronaphthalen-1-yl 1-((2-(2,6-dioxopiperidin-3-yl)-1,3-dioxoisoindolin-4-yl)amino)-22,22-dimethyl-19-oxo-3,6,9,12,15-pentaoxa-18-azatricosan-23-oate], the DC50 was < 50 nM. `C[C@H]1C=C2C=C[C@H](C)[C@H](CC[C@@H]3C[C@@H](O)CC(=O)O3)[C@H]2[C@@H](OC(=O)C(C)(C)CCC(=O)NCCOCCOCCOCCOCCOCCOCCNc2cccc3c2C(=O)N(C2CCC(=O)NC2=O)C3=O)C1` (stereo partly drawn) [Compound 6, (1S,3R,7S,8S,8aR)-8-(2-((2R,4R)-4-hydroxy-6-oxotetrahydro-2H-pyran-2-yl)ethyl)-3,7-dimethyl-1,2,3,7,8,8a-hexahydronaphthalen-1-yl 1-((2-(2,6-dioxopiperidin-3-yl)-1,3-dioxoisoindolin-4-yl)amino)-25,25-dimethyl-22-oxo-3,6,9,12,15,18-hexaoxa-21-azahexacosan-26-oate] was tested, and the DC50 was < 50 nM. For `C[C@H]1C=C2C=C[C@H](C)[C@H](CC[C@@H]3C[C@@H](O)CC(=O)O3)[C@H]2[C@@H](OC(=O)C(C)(C)CCC(=O)NCCOCCOCCOCC(=O)NCC(C)(C)C)C1` [Compound 7, (1S,3R,7S,8S,8aR)-8-(2-((2R,4R)-4-hydroxy-6-oxotetrahydro-2H-pyran-2-yl)ethyl)-3,7-dimethyl-1,2,3,7,8,8a-hexahydronaphthalen-1-yl 2,2,20,20-tetramethyl-5,17-dioxo-7,10,13-trioxa-4,16-diazahenicosan-21-oate], the DC50 was > 500 nM. In the case of `Cc1ncsc1-c1ccc(CNC(=O)[C@@H]2C[C@@H](O)CN2C(=O)[C@@H](NC(=O)COCCNC(=O)CCC(C)(C)C(=O)O[C@H]2C[C@@H](C)C=C3C=C[C@H](C)[C@H](CC[C@@H]4C[C@@H](O)CC(=O)O4)[C@H]32)C(C)(C)C)cc1` [Compound 8, (1S,3R,7S,8S,8aR)-8-(2-((2R,4R)-4-hydroxy-6-oxotetrahydro-2H-pyran-2-yl)ethyl)-3,7-dimethyl-1,2,3,7,8,8a-hexahydronaphthalen-1-yl 5-((2-(2-(((S)-1-((2S,4R)-4-hydroxy-2-((4-(4-methylthiazol-5-yl)benzyl)carbamoyl)pyrrolidin-1-yl)-3,3-dimethyl-1-oxobutan-2-yl)amino)-2-oxoethoxy)ethyl)amino)-2,2-dimethyl-5-oxopentanoate], the DC50 is reported as < 50 nM.
